Measurements: ChEMBL document CHEMBL5036347, “Design of the naphthyl-diarylpyrimidines as potent non-nucleoside reverse transcriptase inhibitors (NNRTIs) via structure-based extension into the entrance channel” (Eur J Med Chem, 2021)

Experiments:
[1] = tested on: Human immunodeficiency virus 2; test: Anti-HIV activity against HIV2 ROD infected in human MT4 cells assessed as reduction in virus-induced cytopathic effect incubated for 5 days by MTT assay; assay type: functional, organism-based; details: Human immunodeficiency virus 2, ROD, MT4, 120 h
[2] = tested on: Human immunodeficiency virus 1; test: Antiviral activity against HIV1 harboring reverse transcriptase K103N mutant infected in human MT4 cells assessed as protection against virus-induced cytopathic effect incubated for 5 days by MTT assay; assay type: functional, organism-based; details: Human immunodeficiency virus 1, MT4, 120 h
[3] = tested on: Human immunodeficiency virus 1; test: Antiviral activity against HIV1 harboring reverse transcriptase F227L/V106A mutant infected in human MT4 cells assessed as protection against virus-induced cytopathic effect incubated for 5 days by MTT assay; assay type: functional, organism-based; details: Human immunodeficiency virus 1, MT4, 120 h
[4] = Resistance fold, ratio of EC50 for HIV1 harboring reverse transcriptase K103N mutant […] to EC50 for wild type HIV1 […]; assay type: functional
[5] = tested on: Human immunodeficiency virus 1; test: Antiviral activity against HIV1 harboring reverse transcriptase E138K mutant infected in human MT4 cells assessed as protection against virus-induced cytopathic effect incubated for 5 days by MTT assay; assay type: functional, organism-based; details: Human immunodeficiency virus 1, MT4, 120 h
[6] = Resistance fold, ratio of EC50 for HIV1 harboring reverse transcriptase L100I mutant […] to EC50 for wild type HIV1 […]; assay type: functional
[7] = Resistance fold, ratio of EC50 for HIV1 harboring reverse transcriptase F227L/V106A double mutant […] to EC50 for wild type HIV1 […]; assay type: functional
[8] = Resistance fold, ratio of EC50 for HIV1 harboring reverse transcriptase E138K mutant […] to EC50 for wild type HIV1 […]; assay type: functional
[9] = Resistance fold, ratio of EC50 for HIV1 harboring reverse transcriptase Y188L mutant […] to EC50 for wild type HIV1 […]; assay type: functional
[10] = Selectivity index, ratio of CC50 for cytotoxicity against human MT4 cells to EC50 of Anti-HIV activity against HIV-1 IIIB infected in human MT4; assay type: toxicity, cell-based; details: read-out: Selectivity Index
[11] = Resistance fold, ratio of EC50 for HIV1 harboring reverse transcriptase K103N/Y181C double mutant […] to EC50 for wild type HIV1 […]; assay type: functional
[12] = tested on: Human immunodeficiency virus 1; test: Antiviral activity against HIV1 harboring reverse transcriptase L100I mutant infected in human MT4 cells assessed as protection against virus-induced cytopathic effect incubated for 5 days by MTT assay; assay type: functional, organism-based; details: Human immunodeficiency virus 1, MT4, 120 h
[13] = tested on: Human immunodeficiency virus 1; test: Antiviral activity against HIV1 harboring reverse transcriptase Y188L mutant infected in human MT4 cells assessed as protection against virus-induced cytopathic effect incubated for 5 days by MTT assay; assay type: functional, organism-based; details: Human immunodeficiency virus 1, MT4, 120 h
[14] = Resistance fold, ratio of EC50 for HIV1 harboring reverse transcriptase Y181C mutant […] to EC50 for wild type HIV1 […]; assay type: functional
[15] = Cytotoxicity against human MT4 cells assessed as reduction in cell viability incubated for 5 days by MTT assay; assay type: cell-based; details: human, MT4 cells; time 5 day
[16] = target: Human immunodeficiency virus type 1 reverse transcriptase (Human immunodeficiency virus 1, UniProt Q72547); test: Inhibition of wild type HIV1 reverse transcriptase using oligo(dT)16 as primer measured after 40 mins by picogreen-dye based spectrofluorimetric analysis
[17] = tested on: Human immunodeficiency virus 1; test: Antiviral activity against HIV1 harboring reverse transcriptase K103N/Y181C double mutant infected in human MT4 cells assessed as protection against virus-induced cytopathic effect incubated for 5 days by MTT assay; assay type: functional, organism-based; details: Human immunodeficiency virus 1, MT4, 120 h
[18] = tested on: Human immunodeficiency virus 1; test: Antiviral activity against HIV1 harboring reverse transcriptase Y181C mutant infected in human MT4 cells assessed as protection against virus-induced cytopathic effect incubated for 5 days by MTT assay; assay type: functional, organism-based; details: Human immunodeficiency virus 1, MT4, 120 h
[19] = tested on: Human immunodeficiency virus 1; test: Anti-HIV activity against HIV-1 IIIB infected in human MT4 cells assessed as reduction in virus-induced cytopathic effect incubated for 5 days by MTT assay; assay type: functional, organism-based; details: Human immunodeficiency virus 1, IIIB, MT4, 120 h

Compound	EC50 [1]	EC50 [2]	EC50 [3]	Ratio EC50 [4]	EC50 [5]	Ratio EC50 [6]	Ratio EC50 [7]	Ratio EC50 [8]	Ratio EC50 [9]	selectivity ratio [10]	Ratio EC50 [11]	EC50 [12]	EC50 [13]	Ratio EC50 [14]	CC50 at 120 h [15]	IC50 [16]	EC50 [17]	EC50 [18]	EC50 [19]	further results
COc1cc2cc(C#N)ccc2c(OC)c1Oc1cc(NCC2CCOC2)nc(Nc2ccc(C#N)cc2)n1 (configuration not stated)	> 1000 µM	0.016 µM	7.78 µM	1	0.047 µM	22	410	2	35	> 12500	36	0.37 µM	0.67 µM	9	> 125 µM	0.06 µM	0.68 µM	0.17 µM	0.019 µM	–
COc1cc2cc(C#N)ccc2c(OC)c1Oc1cc(NCC(C)C)nc(Nc2ccc(C#N)cc2)n1	> 1000 µM	0.11 µM	> 1000 µM	3	0.13 µM	3646	>28736	4	383	> 7250	>28736	127 µM	13.3 µM	1253	> 125 µM	0.25 µM	> 1000 µM	43.6 µM	0.035 µM	–
CCC(CC)Nc1cc(Oc2c(OC)cc3cc(C#N)ccc3c2OC)nc(Nc2ccc(C#N)cc2)n1	> 1000 µM	0.11 µM	> 1000 µM	1	0.27 µM	46	>7862	2	192	> 1930	555	5.87 µM	24.4 µM	10	> 125 µM	0.6 µM	70.5 µM	1.33 µM	0.13 µM	–
CCCC(C)Nc1cc(Oc2c(OC)cc3cc(C#N)ccc3c2OC)nc(Nc2ccc(C#N)cc2)n1 (configuration not stated)	> 1000 µM	0.064 µM	> 1000 µM	1	0.25 µM	28	>12771	3	139	> 3140	112	2.17 µM	10.9 µM	8	> 125 µM	0.4 µM	8.77 µM	0.66 µM	0.078 µM	–
COc1cc2cc(C#N)ccc2c(OC)c1Oc1cc(NCC(O)CO)nc(Nc2ccc(C#N)cc2)n1 (configuration not stated)	> 1000 µM	0.093 µM	3.11 µM	1	0.28 µM	17	31	3	13	293	9	1.04 µM	1.26 µM	7	29.5 µM	0.08 µM	0.93 µM	0.73 µM	0.1 µM	–
COc1cc2cc(C#N)ccc2c(OC)c1Oc1cc(NC2CCCCC2)nc(Nc2ccc(C#N)cc2)n1	–	0.13 µM	> 1000 µM	1	0.57 µM	379	>9533	2	479	> 2290	933	39.8 µM	50.3 µM	12	> 125 µM	0.44 µM	97.9 µM	1.27 µM	0.1 µM	IC50 [1]: > 1000 µM
COc1cc2cc(C#N)ccc2c(OC)c1Oc1cc(NCCC2=CCCCC2)nc(Nc2ccc(C#N)cc2)n1	> 1000 µM	0.18 µM	164 µM	1	0.53 µM	50	494	5	445	> 688	90	16.6 µM	148 µM	11	> 125 µM	0.28 µM	30 µM	4.65 µM	0.33 µM	–
COc1cc2cc(C#N)ccc2c(OC)c1Oc1cc(NC2CC2)nc(Nc2ccc(C#N)cc2)n1	> 1000 µM	0.038 µM	9.59 µM	2	0.061 µM	29	468	3	45	> 12700	63	0.59 µM	–	9	> 125 µM	0.08 µM	1.28 µM	0.19 µM	0.02 µM	IC50 [13]: 0.91 µM
CCCCCC(C)Nc1cc(Oc2c(OC)cc3cc(C#N)ccc3c2OC)nc(Nc2ccc(C#N)cc2)n1 (configuration not stated)	> 1000 µM	1.33 µM	> 1000 µM	1	2.22 µM	102	>649	1	>650	> 151	>649	157 µM	> 1000 µM	26	> 125 µM	1.2 µM	> 1000 µM	40 µM	1.54 µM	–
COc1cc2cc(C#N)ccc2c(OC)c1Oc1cc(NCC(C)(C)C)nc(Nc2ccc(C#N)cc2)n1	> 1000 µM	0.14 µM	> 1000 µM	2	0.31 µM	103	>11723	4	1313	> 2880	>11723	8.79 µM	112 µM	28	> 125 µM	0.51 µM	1000 µM	2.38 µM	0.085 µM	–
COc1cc2cc(C#N)ccc2c(OC)c1Oc1cc(NC2CCC2)nc(Nc2ccc(C#N)cc2)n1	> 1000 µM	–	145 µM	1	0.084 µM	28	3981	5	68	> 7040	86	1.02 µM	2.47 µM	9	> 125 µM	0.11 µM	3.13 µM	0.33 µM	0.037 µM	IC50 [2]: 0.044 µM
CCC(C)Nc1cc(Oc2c(OC)cc3cc(C#N)ccc3c2OC)nc(Nc2ccc(C#N)cc2)n1 (configuration not stated)	> 1000 µM	0.42 µM	> 1000 µM	9	0.12 µM	31	>22472	3	89	> 5670	83	1.38 µM	3.97 µM	10	> 125 µM	0.26 µM	3.69 µM	0.43 µM	0.045 µM	–
CCCNc1cc(Oc2c(OC)cc3cc(C#N)ccc3c2OC)nc(Nc2ccc(C#N)cc2)n1	> 1000 µM	0.016 µM	65.1 µM	1	0.046 µM	28	3827	3	68	> 15700	75	0.47 µM	1.15 µM	11	> 125 µM	0.11 µM	1.27 µM	0.18 µM	0.017 µM	–
